“And” between values parts separate entries of the source, which are not always exact repeats. Identical values can stand only once. Counter-ions that a name gives are not always drawn.
What was measured:
MOLT/DAU-8 cells = test: cells; assay type: cell-based
Excerpt: (§1) For this, a selected compound of the formula I, the compound (-)-1,4-dihydro-2,6-dimethyl-4-(3-nitrophenyl)-pyridine-3,5-dicarboxylic acid 3-methyl 5- 3(4,4-diphenyl-1-piperidinyl)-propyl! ester hydrochloride (=compound 1), was investigated in more detail as follows:
(§2) The tumour cell lines MOLT/VCR-5×9 (starting density: 1.14×10^6 cells/ml), MOLT/DAU-8 (starting density: 1.01×10^6 cells/ml) and CCRF CEMVCR1000+(starting density: 2.00×10^6 cells/ml), which are resistant towards the cytostatics vincristine and daunomycin, were incubated for 72.5 to 73.25 hours in accordance with the following test pattern:
(§3) 2. Control with the cytostatic relating to the particular cell line (for the concentrations, see below)
(§4) 4. Compound 1 in concentrations of 10^-6 and 10^-7 M
(§5) 5. Compound 1 in concentrations of 10^-6 and 10^-7 M, together with the cytostatic relating to the particular cell line (for the concentrations, see below).
(§6) The cytostatic concentrations used for the individual cell lines were: […]

CCRF CEM VCR1000+ cells = test: cells; assay type: cell-based
Excerpt: as §1, §2, §3, §4, §5, §6

MOLT/VCR-5×9 cells = test: cells; assay type: cell-based
Excerpt: as §1, §2, §3, §4, §5
(§7) The cytostatic concentrations used for the individual cell lines were:
(§8) Vincristine: 5×10^-9 M (for MOLT/VCR-5×9)

[1] = system: MOLT/VCR-5×9, MOLT/DAU-8 and CCRF CEM VCR1000+ tumour cell lines
Excerpt: as §1, §2, §3, §4, §5, §7, §8

[2] = 73.25 h, read-out: Growth inhibition in %, compound 1 by itself
[3] = Homo sapiens, CCRF-CEM/VCR-1000, 73.25 h, read-out: Growth inhibition in %, compound 1 by itself

## COC(=O)C1=C(C)NC(C)=C(C(=O)OCCCN2CCC(c3ccccc3)(c3ccccc3)CC2)C1c1cccc([N+](=O)[O-])c1 (single isomer, unassigned; (-)) [Compound 1, (-)-1,4-dihydro-2,6-dimethyl-4-(3-nitrophenyl)-pyridine-3,5-dicarboxylic acid 3-methyl 5-3(4,4-diphenyl-1-piperidinyl)-propyl! ester hydrochloride]
MOLT/DAU-8 cells; [2]
  inhibition at 0.1 µM: 43%
  inhibition at 10 µM: 53%
MOLT/DAU-8 cells; hydrochloride
  Growth inhibition in %, compound 1 + cytostatic: 56 and 96
CCRF CEM VCR1000+ cells; [3]
  inhibition at 0.1 µM: 10%
  inhibition at 10 µM: 67%
CCRF CEM VCR1000+ cells; hydrochloride
  Growth inhibition in %, compound 1 + cytostatic: 65 and 90
MOLT/VCR-5×9 cells
  Growth inhibition in %, compound 1 + cytostatic: 99
MOLT/VCR-5×9 cells; [2]
  inhibition at 0.1 µM: 66%
  inhibition at 10 µM: 79%
[1]
  concentration dependence of growth inhibition (in words): This inhibition of growth depends on the concentration
  inhibition of growth by compound 1 by itself (in words): All resistant cells are inhibited in their growth
  overcoming of resistance and intensification of cytotoxicity (in words): the resistance towards cytostatics is overcome and the cytotoxicity of the cytostatics is intensified

## COc1cccc2c1C(=O)c1c(O)c3c(c(O)c1C2=O)C[C@@](O)(C(C)=O)C[C@@H]3O[C@H]1C[C@H](N)[C@H](O)[C@H](C)O1 [Daunomycin, reference compound]
MOLT/DAU-8 cells; MOLT/DAU-8, daunomycin 10^-8 M by itself, 72.5 to 73.25 h, vs DMSO control, read-out: Growth inhibition in %, cytostatic by itself
  inhibition at 0.01 µM: 0%

## CC[C@]1(O)C[C@H]2CN(CCc3c([nH]c4ccccc34)[C@@](C(=O)OC)(c3cc4c(cc3OC)N(C=O)[C@H]3[C@@](O)(C(=O)OC)[C@H](OC(C)=O)[C@]5(CC)C=CCN6CC[C@]43[C@@H]65)C2)C1 [Vincristine, reference compound]
CCRF CEM VCR1000+ cells; Homo sapiens, CCRF-CEM/VCR-1000, CCRF CEM VCR1000+, vincristine 1.08 × 10^-6 M by itself, 72.5 to 73.25 h, vs DMSO control, read-out: Growth inhibition in %, cytostatic by itself
  inhibition at 1.08 µM: 0%
MOLT/VCR-5×9 cells; MOLT/VCR-5 × 9, vincristine 5 × 10^-9 M by itself, 72.5 to 73.25 h, vs DMSO control, read-out: Growth inhibition in %, cytostatic by itself
  inhibition at 0.005 µM: 0%

Reference: patent US5514664A, “1,4-dihydropyridines for application in combatting resistance to drugs” (BYK Gulden Lomberg Chemische Fabrik GmbH, priority 1990, dated 1996)
